# Where a SMILES comes first, the peptide text is derived from it. The star is where a group is joined. C16 diacid = O=C(O)CCCCCCCCCCCCCCC(=O)*
# How the values were obtained:
# Type in all cases: cell-based
# [1] = biological target: T1, mouse GLP‐2 receptor (Mus musculus, UniProt Q5IXF8); experiment: cAMP accumulation, agonism in transfected COS‐7 cells; conditions: increasing concentrations, COS‐7, n = 5
# T1 construct: host or cells: COS-7
# T1 sequence (Q5IXF8 1-512): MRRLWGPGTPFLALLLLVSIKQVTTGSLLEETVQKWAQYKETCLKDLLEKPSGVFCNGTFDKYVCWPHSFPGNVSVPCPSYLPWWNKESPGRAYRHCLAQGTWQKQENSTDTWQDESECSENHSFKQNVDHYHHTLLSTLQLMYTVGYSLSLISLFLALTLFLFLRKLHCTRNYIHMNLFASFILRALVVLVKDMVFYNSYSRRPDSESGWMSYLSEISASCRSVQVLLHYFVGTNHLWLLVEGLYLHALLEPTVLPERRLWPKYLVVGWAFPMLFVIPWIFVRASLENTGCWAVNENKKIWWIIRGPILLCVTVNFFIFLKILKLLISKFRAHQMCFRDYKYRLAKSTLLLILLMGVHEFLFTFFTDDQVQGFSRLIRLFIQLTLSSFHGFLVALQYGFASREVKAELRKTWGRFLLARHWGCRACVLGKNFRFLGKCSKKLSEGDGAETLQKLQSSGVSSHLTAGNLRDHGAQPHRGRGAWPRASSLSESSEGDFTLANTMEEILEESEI
# Protocol: (§1) COS‐7 cells were cultured at 10% CO2 and 37°C in Dulbecco's Modified Eagle Medium 1885 supplemented with 10% foetal bovine serum, 2‐mM glutamine, 180‐units ml^−1 penicillin and […] streptomycin. Transient transfection of the cells with either human or mouse GIP receptor was performed using the calcium phosphate precipitation method as previously described (van der Velden et al., [2021]). A second set of cells was transiently transfected with either mouse GLP‐1 or GLP‐2 receptor. Following the day after transfection, the cells were seeded in white 96‐well plates with a density of 35.000 cells per well. The next day the assay was initiated by washing the cells with HEPES buffered saline (HBS) followed by an incubation step with HBS and 1‐mM 3‐isobutyl‐1‐methylxanthine for 30 min at 37°C. For agonist studies, the ligands were then added and incubated for an additional 30 min at 37°C. To test for antagonistic properties, the cells were first preincubated for 10 min with the antagonist with subsequent addition of the agonist and incubated for an additional 20 min. The HitHunter® cAMP assay (Eurofins DiscoverX, Fremont, USA) was carried out according to the manufacturer's protocol. Luminescence was measured by PerkinElmer™ Envision 2014 Multilabel Reader.
# FIGURE 2 In vitro signalling profile of mGIPAnt‐1 on the mouse GLP‐1 and GLP‐2 receptor (R). […]
# [2] = biological target: T2, human GIP receptor (Homo sapiens, UniProt P48546); experiment: cAMP accumulation, agonism (intrinsic activity) in transfected COS‐7 cells; conditions: increasing concentrations of ligand alone, 30 min, COS‐7, n = 5
# T2 construct: host or cells: COS-7
# T2 sequence (P48546 22-466): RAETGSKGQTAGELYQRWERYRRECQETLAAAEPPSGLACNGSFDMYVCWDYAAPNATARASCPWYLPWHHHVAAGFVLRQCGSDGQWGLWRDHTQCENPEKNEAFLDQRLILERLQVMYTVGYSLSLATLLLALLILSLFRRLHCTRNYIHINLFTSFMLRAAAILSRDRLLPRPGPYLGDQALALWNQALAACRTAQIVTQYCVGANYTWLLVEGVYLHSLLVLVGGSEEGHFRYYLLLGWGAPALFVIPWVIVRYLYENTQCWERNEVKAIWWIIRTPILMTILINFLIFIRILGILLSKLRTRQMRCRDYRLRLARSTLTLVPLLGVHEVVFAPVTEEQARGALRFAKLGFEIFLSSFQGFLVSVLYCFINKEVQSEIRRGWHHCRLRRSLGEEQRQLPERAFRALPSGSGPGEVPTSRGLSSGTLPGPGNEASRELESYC
# Protocol: as §1
# (§2) To facilitate comparisons of assay outputs (cAMP assays), the results (of duplicate measurements) were normalized, with the response to 10 pM of GIP(1‐42) set as 100%. All ligand concentrations are reported as log‐transformed. The IC50 log values can be found in Figure 1. In Figure 3c, we have subtracted glucose levels from baseline to show the net differences in glucose levels in our different treatment groups.
# (§3) FIGURE 1 In vitro signalling profile of mGIPAnt‐1 on the mouse and human glucose‐dependent insulinotropic polypeptide receptor/(GIPR). COS‐7 cells were transiently transfected with (a) mouse GIPR or (b) human GIPR and assayed for cAMP accumulation. To test for agonism, increasing concentration of the ligand was added. […]
# [3] = biological target: T3, mouse GIP receptor (Mus musculus, UniProt Q0P543); experiment: as above; conditions: increasing concentrations of ligand alone, 30 min, COS‐7, n = 5
# T3 construct: host or cells: COS-7
# T3 sequence (Q0P543 19-460): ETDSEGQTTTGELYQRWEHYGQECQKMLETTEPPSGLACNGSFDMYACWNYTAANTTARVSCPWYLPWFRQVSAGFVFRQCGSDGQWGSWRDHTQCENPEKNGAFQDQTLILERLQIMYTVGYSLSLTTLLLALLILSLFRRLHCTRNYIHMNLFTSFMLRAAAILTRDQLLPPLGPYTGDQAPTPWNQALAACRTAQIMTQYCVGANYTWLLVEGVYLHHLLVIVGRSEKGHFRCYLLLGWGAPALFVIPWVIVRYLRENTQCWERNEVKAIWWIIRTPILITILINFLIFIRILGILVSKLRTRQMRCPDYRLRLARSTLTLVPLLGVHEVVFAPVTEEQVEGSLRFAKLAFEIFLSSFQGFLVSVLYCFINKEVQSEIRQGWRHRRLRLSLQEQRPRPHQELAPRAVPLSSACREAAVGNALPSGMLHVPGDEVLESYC
# Protocol: as §1, §2, §3
smiles,measurement,setting,value
CC[C@H](C)[C@H](NC(=O)[C@H](CO)NC(=O)[C@H](Cc1ccc(O)cc1)NC(=O)[C@H](CC(=O)O)NC(=O)[C@H](CO)NC(=O)[C@@H](NC(=O)[C@H](Cc1ccccc1)NC(=O)[C@@H](NC(=O)CNC(=O)[C@@H](N)CCC(=O)O)[C@@H](C)O)[C@@H](C)CC)C(=O)N[C@@H](C)C(=O)N[C@@H](CCSC)C(=O)N[C@@H](CC(=O)O)C(=O)N[C@@H](CCCCN)C(=O)N[C@H](C(=O)N[C@@H](CCCCNC(=O)CCCCCCCCCCCCCCC(=O)O)C(=O)N[C@@H](CCC(N)=O)C(=O)N[C@@H](CCC(N)=O)C(=O)N[C@@H](CC(=O)O)C(=O)N[C@@H](Cc1ccccc1)C(=O)N[C@H](C(=O)N[C@@H](CC(N)=O)C(=O)N[C@@H](Cc1c[nH]c2ccccc12)C(=O)N[C@@H](CC(C)C)C(=O)N[C@@H](CC(C)C)C(=O)N[C@@H](C)C(=O)N[C@@H](CCC(N)=O)C(=O)N[C@@H](CCCCN)C(=O)NCC(=O)N[C@@H](CCCCN)C(=O)N[C@@H](CCCCN)C(=O)N[C@@H](CC(N)=O)C(=O)N[C@@H](CC(=O)O)C(=O)N[C@@H](Cc1c[nH]c2ccccc12)C(=O)N[C@@H](CCCCN)C(=O)N[C@@H](Cc1c[nH]cn1)C(=O)N[C@@H](CC(N)=O)C(=O)O)C(C)C)[C@@H](C)CC [mGIPAnt‐1] (H-EGTFISDYSIAMDKIK(C16 diacid)QQDFVNWLLAQKGKKNDWKHN-OH),activation of mouse GLP‐2 receptor (cAMP),[1],does not induce activation
same,"intrinsic activity (activation of human GIP receptor, cAMP)",[2],no activation
same,"intrinsic activity (activation of mouse GIP receptor, cAMP)",[3],no activation
